Tests used:
Assay type in all cases: functional
[1] = tested on: Mus musculus; assay: In vivo antitumor activity against P-388 leukemia in CDF1 mice at 256 mg or 746 umol by ip administration expressed as median survival time of drug treated mice/median survival time of control mice x100
[2] = tested on: Mus musculus; assay: In vivo antitumor activity against P-388 leukemia in CDF1 mice at 8 mg or 23 umol by ip administration expressed as median survival time of drug treated mice/median survival time of control mice x100
[3] = tested on: Mus musculus; assay: In vivo antitumor activity against P-388 leukemia in CDF1 mice at 16 mg or 47 umol by ip administration expressed as median survival time of drug treated mice/median survival time of control mice x100
[4] = tested on: Mus musculus; assay: In vivo antitumor activity against P-388 leukemia in CDF1 mice at 32 mg or 93 umol by ip administration expressed as average wt. change determined between day 0 and day 6 of experiment
[5] = tested on: Mus musculus; assay: In vivo antitumor activity against P-388 leukemia in CDF1 mice at 32 mg or 93 umol by ip administration expressed as median survival time of drug treated mice/median survival time of control mice x100
[6] = tested on: Mus musculus; assay: In vivo antitumor activity against P-388 leukemia in CDF1 mice at 64 mg or 186 umol by ip administration expressed as average wt. change determined between day 0 and day 6 of experiment
[7] = tested on: Mus musculus; assay: In vivo antitumor activity against P-388 leukemia in CDF1 mice at 16 mg or 47 umol by ip administration expressed as average wt. change determined between day 0 and day 6 of experiment
[8] = tested on: Mus musculus; assay: In vivo antitumor activity against P-388 leukemia in CDF1 mice at 128 mg or 373 umol by ip administration expressed as average wt. change determined between day 0 and day 6 of experiment
[9] = tested on: Mus musculus; assay: In vivo antitumor activity against P-388 leukemia in CDF1 mice at 128 mg or 373 umol by ip administration expressed as median survival time of drug treated mice/median survival time of control mice x100
[10] = tested on: Mus musculus; assay: In vivo antitumor activity against P-388 leukemia in CDF1 mice at 256 mg or 746 umol by ip administration expressed as average wt. change determined between day 0 and day 6 of experiment
[11] = tested on: Mus musculus; assay: In vivo antitumor activity against P-388 leukemia in CDF1 mice at 8 mg or 23 umol by ip administration expressed as average wt. change determined between day 0 and day 6 of experiment
[12] = tested on: Mus musculus; assay: In vivo antitumor activity against P-388 leukemia in CDF1 mice at 64 mg or 186 umol by ip administration expressed as median survival time of drug treated mice/median survival time of control mice x100

CC1(C)CN1P(=O)(OCCn1ccnc1[N+](=O)[O-])N1CC1(C)C (configuration not stated)
T/C [1]: 228%
T/C [2]: 106%
T/C [3]: 122%
Average weight change [4]: -0.9 g
T/C [5]: 111%
Average weight change [6]: -1.1 g
Average weight change [7]: 0.1 g
Average weight change [8]: -1.3 g
T/C [9]: 189%
Average weight change [10]: -2.8 g
Average weight change [11]: 0.2 g
T/C [12]: 150%

— ChEMBL document CHEMBL1125669, “Synthesis of potential dual-acting radiation sensitizer antineoplastic agents: 2,2-dimethylphosphoraziridines containing 2-nitroimidazoles or other electron-affinic moieties” (1991)
